Data taken from patent US20250269072A1, “PROCESSES FOR PREPARING RADIOLABELLED CONJUGATES” (CENTENARY INSTITUTE OF CANCER MEDICINE AND CELL BIOLOGY, priority 2021, published 2025).
Where “and” joins values, the source holds several entries; their conditions need not be identical. Equal entries are not always repeated.

Test: Human studies: radiation dosimetry of subjects 1-4 (Olinda/EXM)
Format: in vivo
Conditions: subjects 1-4 = the 7th table-the 10th table
Procedure: For subjects 1-4, radiation dosimetry was calculated using Olinda/EXM based on the organ biodistribution discussed above.
Tables 7-10 show the estimate for radiation dosimetry for subjects 1˜4 of 200 MBq of ^68Ga NODAGA GSAO for individual organs and for the whole body in mSv/MBq (EDE cont.=effective dose equivalent contribution, ED Cont.=effective dose contribution). The estimated whole-body dose from the one (1) low dose CT and two (2) ultra-low dose CTs was 9.2 mSv.

O=C(O)CNC(=O)[C@H](CSCC(=O)Nc1ccc([As](O)O)cc1)NC(=O)CC[C@H](NC(=O)CCC1C(=O)[O][68Ga]2[O]C(=O)CN3CCN(CCN1CC3)CC(=O)[O]2)C(=O)O (stereo partly drawn) [^68Ga-NODAGA-GSAO]
Alpha dose (Adrenals): 0.00E+00 mSv/MBq
ED Cont. (Adrenals): 7.09E−05 mSv/MBq and 7.38E−05 mSv/MBq and 4.84E−05 mSv/MBq and 8.93E−05 mSv/MBq
Photon dose (Adrenals): 4.52E−03 mSv/MBq and 5.24E−03 mSv/MBq and 3.71E−03 mSv/MBq and 4.86E−03 mSv/MBq
Total dose (Adrenals): 1.42E−02 mSv/MBq and 1.48E−02 mSv/MBq and 9.68E−03 mSv/MBq and 1.79E−02 mSv/MBq
Alpha dose (Brain): 0.00E+00 mSv/MBq
Beta dose (Brain): 6.82E−04 mSv/MBq and 6.40E−04 mSv/MBq and 6.13E−04 mSv/MBq and 7.79E−04 mSv/MBq
ED Cont. (Brain): 9.10E−06 mSv/MBq and 1.05E−05 mSv/MBq and 7.39E−06 mSv/MBq and 1.00E−05 mSv/MBq
EDE Cont. (Brain): 0.00E+00 mSv/MBq
Photon dose (Brain): 1.14E−03 mSv/MBq and 1.46E−03 mSv/MBq and 8.65E−04 mSv/MBq and 1.23E−03 mSv/MBq
Total dose (Brain): 1.82E−03 mSv/MBq and 2.10E−03 mSv/MBq and 1.48E−03 mSv/MBq and 2.01E−03 mSv/MBq
Alpha dose (Breasts): 0.00E+00 mSv/MBq
Photon dose (Breasts): 2.11E−03 mSv/MBq and 2.76E−03 mSv/MBq and 1.59E−03 mSv/MBq and 2.25E−03 mSv/MBq
Alpha dose (Gallbladder Wall): 0.00E+00 mSv/MBq
ED Cont. (Gallbladder Wall): 0.00E+00 mSv/MBq
EDE Cont. (Gallbladder Wall): 0.00E+00 mSv/MBq
Photon dose (Gallbladder Wall): 4.59E−03 mSv/MBq and 5.27E−03 mSv/MBq and 4.07E−03 mSv/MBq and 4.46E−03 mSv/MBq
Total dose (Gallbladder Wall): 8.07E−03 mSv/MBq and 9.96E−03 mSv/MBq and 6.09E−03 mSv/MBq and 8.56E−03 mSv/MBq
Alpha dose (Heart Wall): 0.00E+00 mSv/MBq
Beta dose (Heart Wall): 6.65E−03 mSv/MBq and 8.27E−03 mSv/MBq and 4.65E−03 mSv/MBq and 7.57E−03 mSv/MBq
ED Cont. (Heart Wall): 0.00E+00 mSv/MBq
EDE Cont. (Heart Wall): 0.00E+00 mSv/MBq
Photon dose (Heart Wall): 3.57E−03 mSv/MBq and 4.29E−03 mSv/MBq and 2.82E−03 mSv/MBq and 3.84E−03 mSv/MBq
Total dose (Heart Wall): 1.02E−02 mSv/MBq and 1.26E−02 mSv/MBq and 7.48E−03 mSv/MBq and 1.14E−02 mSv/MBq
Alpha dose (Kidneys): 0.00E+00 mSv/MBq
Beta dose (Kidneys): 4.32E−02 mSv/MBq and 4.21E−02 mSv/MBq and 4.45E−02 mSv/MBq and 4.30E−02 mSv/MBq
ED Cont. (Kidneys): 2.52E−04 mSv/MBq and 2.48E−04 mSv/MBq and 2.57E−04 mSv/MBq
EDE Cont. (Kidneys): 3.03E−03 mSv/MBq and 2.98E−03 mSv/MBq and 3.08E−03 mSv/MBq and 3.02E−03 mSv/MBq
Photon dose (Kidneys): 7.22E−03 mSv/MBq and 7.59E−03 mSv/MBq and 6.83E−03 mSv/MBq and 7.33E−03 mSv/MBq
Total dose (Kidneys): 5.04E−02 mSv/MBq and 4.97E−02 mSv/MBq and 5.13E−02 mSv/MBq and 5.03E−02 mSv/MBq
Alpha dose (LLI Wall): 0.00E+00 mSv/MBq
ED Cont. (LLI Wall): 2.43E−03 mSv/MBq and 2.50E−03 mSv/MBq and 2.44E−03 mSv/MBq and 1.48E−03 mSv/MBq
Photon dose (LLI Wall): 7.31E−03 mSv/MBq and 7.16E−03 mSv/MBq and 5.96E−03 mSv/MBq and 8.79E−03 mSv/MBq
Total dose (LLI Wall): 2.02E−02 mSv/MBq and 2.08E−02 mSv/MBq and 2.03E−02 mSv/MBq and 1.23E−02 mSv/MBq
Alpha dose (Liver): 0.00E+00 mSv/MBq
Beta dose (Liver): 1.27E−02 mSv/MBq and 1.45E−02 mSv/MBq and 1.20E−02 mSv/MBq and 1.16E−02 mSv/MBq
ED Cont. (Liver): 8.78E−04 mSv/MBq and 1.00E−03 mSv/MBq and 8.20E−04 mSv/MBq and 8.13E−04 mSv/MBq
Photon dose (Liver): 4.84E−03 mSv/MBq and 5.51E−03 mSv/MBq and 4.36E−03 mSv/MBq and 4.71E−03 mSv/MBq
Total dose (Liver): 1.76E−02 mSv/MBq and 2.00E−02 mSv/MBq and 1.64E−02 mSv/MBq and 1.63E−02 mSv/MBq
Alpha dose (Lungs): 0.00E+00 mSv/MBq
Beta dose (Lungs): 5.19E−03 mSv/MBq and 5.73E−03 mSv/MBq and 5.16E−03 mSv/MBq and 4.82E−03 mSv/MBq
ED Cont. (Lungs): 9.74E−04 mSv/MBq and 1.11E−03 mSv/MBq and 9.04E−04 mSv/MBq and 9.57E−04 mSv/MBq
EDE Cont. (Lungs): 9.74E−04 mSv/MBq and 1.11E−03 mSv/MBq and 9.04E−04 mSv/MBq and 9.57E−04 mSv/MBq
Photon dose (Lungs): 2.93E−03 mSv/MBq and 3.54E−03 mSv/MBq and 2.37E−03 mSv/MBq and 3.15E−03 mSv/MBq
Total dose (Lungs): 8.12E−03 mSv/MBq and 9.27E−03 mSv/MBq and 7.53E−03 mSv/MBq and 7.97E−03 mSv/MBq
Alpha dose (Muscle): 0.00E+00 mSv/MBq
Beta dose (Muscle): 6.19E−03 mSv/MBq and 6.08E−03 mSv/MBq and 5.15E−03 mSv/MBq and 7.68E−03 mSv/MBq
ED Cont. (Muscle): 4.85E−05 mSv/MBq and 4.95E−05 mSv/MBq and 3.99E−05 mSv/MBq and 5.88E−05 mSv/MBq
EDE Cont. (Muscle): 0.00E+00 mSv/MBq
Photon dose (Muscle): 3.51E−03 mSv/MBq and 3.83E−03 mSv/MBq and 2.83E−03 mSv/MBq and 4.07E−03 mSv/MBq
Total dose (Muscle): 9.71E−03 mSv/MBq and 9.91E−03 mSv/MBq and 7.98E−03 mSv/MBq and 1.18E−02 mSv/MBq
Alpha dose (Osteogenic Cells): 0.00E+00 mSv/MBq
Photon dose (Osteogenic Cells): 3.47E−03 mSv/MBq and 4.14E−03 mSv/MBq and 2.74E−03 mSv/MBq and 3.80E−03 mSv/MBq
Alpha dose (Ovaries): 0.00E+00 mSv/MBq
Photon dose (Ovaries): 7.00E−03 mSv/MBq and 6.95E−03 mSv/MBq and 5.52E−03 mSv/MBq and 8.79E−03 mSv/MBq
Total dose (Ovaries): 1.01E−02 mSv/MBq and 1.16E−02 mSv/MBq and 7.54E−03 mSv/MBq and 1.23E−02 mSv/MBq
Alpha dose (Pancreas): 0.00E+00 mSv/MBq
Beta dose (Pancreas): 1.20E−02 mSv/MBq and 1.62E−02 mSv/MBq and 1.13E−02 mSv/MBq and 1.18E−02 mSv/MBq
ED Cont. (Pancreas): 8.46E−05 mSv/MBq and 1.10E−04 mSv/MBq and 7.72E−05 mSv/MBq and 8.44E−05 mSv/MBq
EDE Cont. (Pancreas): 8.14E−04 mSv/MBq and 1.32E−03 mSv/MBq and 9.27E−04 mSv/MBq and 1.01E−03 mSv/MBq
Photon dose (Pancreas): 4.90E−03 mSv/MBq and 5.90E−03 mSv/MBq and 4.18E−03 mSv/MBq and 5.04E−03 mSv/MBq
Total dose (Pancreas): 1.69E−02 mSv/MBq and 2.21E−02 mSv/MBq and 1.54E−02 mSv/MBq
Alpha dose (Red Marrow): 0.00E+00 mSv/MBq
Beta dose (Red Marrow): 5.39E−03 mSv/MBq and 6.61E−03 mSv/MBq and 4.29E−03 mSv/MBq and 5.25E−03 mSv/MBq
